Data: patent publication US20150164762A1, “USE OF ETHANOLAMINE PHOSPHATE” (priority 2012, published 2015)

What was measured:
[1] = tested on: THP-1; assay: WST-8 proliferation test, THP-1 floating cells; format: cell-based, human; settings: 0% FBS, 72 hours, high concentrations of 125 μM or more
Description: (§1) THP-1 (human acute monocytic leukemia cells) and HL-60 (human myeloid leukemia cells) were logarithmically growth cultured in 10% FBS RPMI-1640 to 2 to 10×10^5 cells/cm^2 to achieve logarithmic growth before EP administration. The cell culture liquid was then centrifuged and precipitated at 1000 rpm, and 90 μl per well was dispensed onto a 96-well plate to 2×10^4 cells/cm^2 in 0% FBS RPMI-1640. […] For the WST-8 assay of the floating cells, 10 μl per well of WST-8 assay reagent was added directly to the cell suspension during culture, and after 1 hour absorbance at 450 nm and 600 nm was measured with a plate reader and the data were analyzed as in the examples above.

[2] = tested on: HL-60; assay: WST-8 proliferation test, HL-60 floating cells; format: cell-based, human; settings: 0% FBS, 72 hours, even at high concentrations
Description: as §1

NCCOP(=O)(O)O [EP, Ethanolamine phosphate]
cell proliferation effect [1]: small cell proliferation effect
cell proliferation ability [2]: absolutely no cell proliferation ability
